Measurements reported in patent publication US6127136A, “Detection of dioxin-like compounds by detection of transformed Ah receptor/ARNT complex” (Paracelsian, Inc., priority 1996, dated 2000).

How the values were obtained:
Type in all cases: biochemical, guinea pig (hepatic cytosol)
[1] = test system: transformed AhR/ARNT complex; assay: size exclusion of biotin-DRE/AhR/ARNT/anti-ARNT complex followed by capture on neutravidin ELISA plates; conditions: FIG. 5, OD at 405 nm
Method: Size-exclusion of biotin-DRE/AhR/ARNT/anti-ARNT complex followed by capture on neutravidin ELISA plates and detection with anti-rabbit/alkaline phosphatase conjugate.
Diethanolamine buffer was prepared by dissolving 0.4 g Magnesium chloride hexahydrate, 0.8 g sodium azide, 338 mL diethanolamine in 2.5 L deionized water, adjusting pH to 9.8 with concentrated HCl, and adjusting volume to 4 liters.
PNPP stock was prepared fresh by dissoving two 15 mg tablets of para-nitro phenyl phosphate (Sigma, St. Louis, Mo.) in 20 mL diethanolamine buffer.
The same size exclusion column operating conditions were used as described above, except the DRE used was B-ERD oligo (SEQ. ID. #3) and DRE-D oligo (SEQ. ID #1)hybridized as described in methods. […]
Samples were incubated for 2 hours at room temperature as described above to achieve transformation/binding events then put on ice. […] The plate was incubated 2 hours, washed 3 times with 300 uL per well PBS plus 0.02% Tween 20, incubated 1 hour with 200 uL per well 1:1000 anti-rabbit/alkaline phosphatase conjugate in PBS plus 0.02% Tween 20 and 0.1% bovine serum albumin, washed 3 times with 300 uL per well PBS plus Tween 20 and developed 2 hours with 200 uL per well PnPP stock, and the optical density read at 405 nm in an ELISA spectrophotometer.

[2] = target: T1, transformed Ah receptor/ARNT complex (Cavia porcellus, UniProt Q6J287); assay: Ah-ELISA dose response using an amplified detection system; set-up: from tissue; host or cells: hepatic cytosol of male Hartley guinea pigs (animals from Cornell Research Animal Resources); conditions: for Average Optical Density: 490 nm, amplified, 28 minutes
Method: The reagents and ELISA plate were prepared as described in Example 9 with an amplified detection system. The TCDD concentration was varied tested at 0, 0.016, 0.031, 0.063, 0.125, 0.25, 0.5, 1.0, 2.0, and 4.0 nM.
The amplified detection system used was the alkaline phosphatase/NADP system published by Johannson et al. (J IMM Meth 87: 7-11, 1986). This system is sold as a kit under the trademark Ampak™ by DAKO.
2x enzyme stock was made by dissolving 8 mg alcohol dehydrogenase, 1.4 mg Diaphorase, 133 mg bovine serum albumin in 40 ml AMP buffer (2.3 g 85% HPLC grade phosphoric acid in a total volume of 960 ml water, pH adjusted to 7.2 with 6N NaOH, and 40 ml of ethanol was added to make 1 L). 2x INT stock was made by dissolving 50 mg INT Violet dye in 50 mL AMP buffer.
After washing the plates, 100 μl of NADP stock (0.837 mg in 10 ml of AP buffer (diethanolamine 50 mM, 1 mM MgCl2, 0.1 mM ZnCl2, 15 mM NaN3, pH 9.5)) was added and allowed to incubate at room temperature for 30 minutes. Sensitivity can be increased by increasing amount of NADP or time of incubation. The 2x enzyme stock and 2x INT stock were mixed and 200 μl of the mixture was added per well. The OD was read at 490 nm (usually read at 1 minute intervals for up to 30 minutes). The results are shown below at 28 minutes.

[3] = target: T1, transformed Ah receptor/ARNT complex; assay: Ah-ELISA dose response using PnPP detection; set-up: from tissue; host or cells: hepatic cytosol of male Hartley guinea pigs (animals from Cornell Research Animal Resources); conditions: for Average Optical Density: 405 nm, PnPP 58 minutes
Method: The reagents and ELISA plate were prepared as described in Example 9 with the standard PNPP detection technique. The TCDD concentration was varied tested at 0, 0.016, 0.031, 0.063, 0.125, 0.25, 0.5, and 1.0 nM. After washing the plates PnPP stock was added to each well (200 uL) and the plate was incubated for 1 hour (actually 58 minutes for data shown below), at which time it was read at 405 nm in an ELISA plate reader and milli O.D. recorded.

T1 sequence (Q6J287 1-846): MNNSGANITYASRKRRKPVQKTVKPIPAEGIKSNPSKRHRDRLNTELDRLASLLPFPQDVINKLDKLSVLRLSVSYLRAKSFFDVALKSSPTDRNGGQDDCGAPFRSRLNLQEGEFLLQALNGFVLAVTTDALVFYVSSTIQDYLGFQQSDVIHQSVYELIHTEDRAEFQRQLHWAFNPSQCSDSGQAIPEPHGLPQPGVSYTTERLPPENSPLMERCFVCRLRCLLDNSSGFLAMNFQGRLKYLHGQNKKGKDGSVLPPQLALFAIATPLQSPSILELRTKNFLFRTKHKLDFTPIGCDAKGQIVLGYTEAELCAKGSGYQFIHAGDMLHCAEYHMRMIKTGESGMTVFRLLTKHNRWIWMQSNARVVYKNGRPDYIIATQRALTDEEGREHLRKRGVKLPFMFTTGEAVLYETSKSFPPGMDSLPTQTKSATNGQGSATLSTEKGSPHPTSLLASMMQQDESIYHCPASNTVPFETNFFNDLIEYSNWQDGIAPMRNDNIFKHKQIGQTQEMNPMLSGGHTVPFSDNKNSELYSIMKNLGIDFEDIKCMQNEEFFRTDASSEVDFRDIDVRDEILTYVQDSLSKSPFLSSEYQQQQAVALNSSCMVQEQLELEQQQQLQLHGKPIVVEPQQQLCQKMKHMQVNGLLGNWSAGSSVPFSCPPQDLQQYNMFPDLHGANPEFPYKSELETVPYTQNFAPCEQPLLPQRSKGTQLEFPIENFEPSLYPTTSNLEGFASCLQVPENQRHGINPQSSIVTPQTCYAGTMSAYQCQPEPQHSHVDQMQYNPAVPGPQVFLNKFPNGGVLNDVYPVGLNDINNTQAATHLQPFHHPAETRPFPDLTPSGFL
T1 sequence (Q0WXX3 1-790 partner): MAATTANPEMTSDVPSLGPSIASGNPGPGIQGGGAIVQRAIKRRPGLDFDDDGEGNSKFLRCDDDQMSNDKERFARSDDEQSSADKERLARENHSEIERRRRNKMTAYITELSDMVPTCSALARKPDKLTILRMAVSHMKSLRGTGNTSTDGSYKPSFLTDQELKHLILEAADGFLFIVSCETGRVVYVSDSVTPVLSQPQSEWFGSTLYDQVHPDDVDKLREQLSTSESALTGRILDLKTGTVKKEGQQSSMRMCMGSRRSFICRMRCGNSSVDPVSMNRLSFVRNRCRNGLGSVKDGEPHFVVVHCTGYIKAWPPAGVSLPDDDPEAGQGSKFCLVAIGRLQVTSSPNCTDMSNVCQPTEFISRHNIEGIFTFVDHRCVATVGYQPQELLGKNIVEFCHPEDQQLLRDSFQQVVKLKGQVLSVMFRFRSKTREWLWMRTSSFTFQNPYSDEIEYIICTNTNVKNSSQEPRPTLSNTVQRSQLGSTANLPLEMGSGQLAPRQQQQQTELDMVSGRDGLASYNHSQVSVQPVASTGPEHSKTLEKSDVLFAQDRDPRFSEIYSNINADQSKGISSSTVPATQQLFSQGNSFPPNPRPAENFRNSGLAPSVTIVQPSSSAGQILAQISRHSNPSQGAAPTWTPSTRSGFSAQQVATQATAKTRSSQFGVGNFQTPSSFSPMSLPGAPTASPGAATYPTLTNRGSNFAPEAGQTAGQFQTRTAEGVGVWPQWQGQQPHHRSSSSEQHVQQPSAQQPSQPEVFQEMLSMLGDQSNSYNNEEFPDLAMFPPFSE

Question: For `Clc1cc2c(cc1Cl)Oc1cc(Cl)c(Cl)cc1O2` [TCDD, 2,3,7,8-tetrachlorodibenzo-p-dioxin], which “TCDD-dependent peak, fractions” value [1] is on record?
Answer: 18-28 fractions

Question: What about the “Average Optical Density” value ([2]; 0.016 nM TCDD) of the same molecule?
Answer: 0.203

Question: And the “Average Optical Density” value ([2]; 0.031 nM TCDD)?
Answer: 0.228

Question: What about the “Average Optical Density” value ([2]; 0.063 nM TCDD) of the same molecule?
Answer: 0.293

Question: And the “Average Optical Density” value ([2]; 0.125 nM TCDD)?
Answer: 0.414

Question: And the “Average Optical Density” value ([2]; 0.25 nM TCDD)?
Answer: 0.675

Question: And the “Average Optical Density” value ([2]; 0.5 nM TCDD)?
Answer: 1.036

Question: What about the “Average Optical Density” value ([2]; 1 nM TCDD) of the same molecule?
Answer: 1.421

Question: And the “Average Optical Density” value ([2]; 2 nM TCDD)?
Answer: 1.803

Question: What about the “Average Optical Density” value ([2]; 4 nM TCDD) of the same molecule?
Answer: 1.844

Question: And the EC50 ([2]; amplified detection, FIG. 7)?
Answer: ~0.248 nM

Question: And the “Average Optical Density” value ([3]; 0.016 nM TCDD)?
Answer: 0.3

Question: And the “Average Optical Density” value ([3]; 0.031 nM TCDD)?
Answer: 0.338

Question: And the “Average Optical Density” value ([3]; 0.063 nM TCDD)?
Answer: 0.4

Question: And the “Average Optical Density” value ([3]; 0.125 nM TCDD)?
Answer: 0.527

Question: And the “Average Optical Density” value ([3]; 0.25 nM TCDD)?
Answer: 0.804

Question: What about the “Average Optical Density” value ([3]; 0.5 nM TCDD) of the same molecule?
Answer: 1.409

Question: And the “Average Optical Density” value ([3]; 1 nM TCDD)?
Answer: 2.155

Question: And the EC50 ([3]; PnPP detection, FIG. 6)?
Answer: ~0.248 nM
